Source: EPA's ToxValDB 9.5 (doi:10.2903/j.efsa.2010.1389)
Converted amounts (≈) assume the structure as drawn.

Key:
Apis mellifera = details: acute; duration: 48 hours; dermal; mortality
Bibionidae = details: chronic/long-term; duration: 28 days; development
Daphnia magna = details: chronic/long-term; duration: 21 days; reproduction
Hypoaspis aculeifer = details: chronic/long-term; duration: 14 days
Lepomis macrochirus = details: acute; duration: 96 hours; mortality
Typhlodromus pyri = test: LR50; higher = less toxic; details: acute; duration: 7 days; mortality

CC(C)Oc1cc(-n2nc(C(C)(C)C)oc2=O)c(Cl)cc1Cl [Oxadiazon]
NOEC (Anas platyrhynchos; reproductive): 106 mg/kg-day | LC50 (Anas platyrhynchos; short-term, oral, feed, mortality): > 1140 mg/kg-day | LD50 (Apis mellifera): > 100 µg/piece | NOEC (Bibionidae): 5 mg/L | LC50 (Colinus virginianus; acute, oral, diet, mortality): > 730 mg/kg-day | LD50 (Colinus virginianus; acute, oral, mortality): > 2150 mg/kg-day | NOEC (Colinus virginianus; reproduction developmental): 90.8 mg/kg-day | NOEC (Daphnia magna): 0.03 mg/L | NOEC (Hypoaspis aculeifer): 339 mg/kg | LC50 (Lepomis macrochirus): 1.2 µg/mL (≈ 3.48 µM) | LC50 (Oncorhynchus mykiss; acute, duration: 96 hours, mortality): 1.2 µg/mL (≈ 3.48 µM) | NOEC (Oncorhynchus mykiss; chronic/long-term, duration: 60 days, other): 0.00088 mg/L | LD50 (Rattus norvegicus; acute, oral, mortality): > 5000 mg/kg-day | NOAEL (Rattus norvegicus; chronic): 15 mg/kg-day | NOAEL (Rattus norvegicus; chronic, duration: 2 years, organ weight): 0.36 mg/kg-day | NOAEL (Rattus norvegicus; developmental, development): 12 mg/kg-day | NOAEL (Rattus norvegicus; reproduction developmental, reproduction): 5 mg/kg-day | LC50 (Tagia sp.; acute, duration: 14 days, mortality): > 1000 mg/kg | NOEC (Tagia sp.; chronic/long-term, duration: 8 weeks, reproduction): 133 mg/kg | LR50 (Typhlodromus pyri): 150 g/ha
